# What was measured:
# Axl = target: T1, Axl (Homo sapiens, UniProt P30530); experiment: PamStation PTK kinomic profiling; type: cell-based; details: change from DMSO control
# T1 construct: cell lysates were prepared; endogenous in cells; host or cells: SW480 and RKO
# Experimental: (§1) SW480 and RKO cells were treated with vehicle (DMSO), JAK/HDACi, regorafenib, and their combination for 45 min, and cell lysates were prepared. Tyrosine kinase (PTK) activity (kinomic) profiling was performed using the PamStation®12 platform (PamGene, BV, The Netherlands). As per standard kinomic protocol as described previously. Whole-chip comparative analysis (BioNavigator Upkin PTK v8.0) was performed between groups generating Mean Kinase Statistics (direction of change).
# FGFR2 = target: T2, FGFR2 (Homo sapiens, UniProt P21802); experiment: PamStation PTK kinomic profiling; type: cell-based; details: change from DMSO control
# T2 construct: cell lysates were prepared; endogenous in cells; host or cells: SW480 and RKO
# Experimental: as §1
# EphA2 = target: T3, EphA2 (Homo sapiens, UniProt P29317); experiment: PamStation PTK kinomic profiling; type: cell-based; details: change from DMSO control
# T3 construct: cell lysates were prepared; endogenous in cells; host or cells: SW480 and RKO
# Experimental: as §1
# HER4 = target: T4, HER4 (Homo sapiens, UniProt Q15303); experiment: PamStation PTK kinomic profiling; type: cell-based; details: change from DMSO control
# T4 construct: we conducted kinome analysis on lysates of SW480 and RKO cells; endogenous in cells; host or cells: SW480 and RKO cells
# Experimental: as §1
# FGFR1 = experiment: PamStation PTK kinomic profiling; type: cell-based; details: change from DMSO control
# Experimental: as §1
# FGFR3 = target: T5, FGFR3 (Homo sapiens, UniProt P22607); experiment: PamStation PTK kinomic profiling; type: cell-based; details: change from DMSO control
# T5 construct: cell lysates were prepared; endogenous in cells; host or cells: SW480 and RKO
# T5 sequence (P22607 23-806): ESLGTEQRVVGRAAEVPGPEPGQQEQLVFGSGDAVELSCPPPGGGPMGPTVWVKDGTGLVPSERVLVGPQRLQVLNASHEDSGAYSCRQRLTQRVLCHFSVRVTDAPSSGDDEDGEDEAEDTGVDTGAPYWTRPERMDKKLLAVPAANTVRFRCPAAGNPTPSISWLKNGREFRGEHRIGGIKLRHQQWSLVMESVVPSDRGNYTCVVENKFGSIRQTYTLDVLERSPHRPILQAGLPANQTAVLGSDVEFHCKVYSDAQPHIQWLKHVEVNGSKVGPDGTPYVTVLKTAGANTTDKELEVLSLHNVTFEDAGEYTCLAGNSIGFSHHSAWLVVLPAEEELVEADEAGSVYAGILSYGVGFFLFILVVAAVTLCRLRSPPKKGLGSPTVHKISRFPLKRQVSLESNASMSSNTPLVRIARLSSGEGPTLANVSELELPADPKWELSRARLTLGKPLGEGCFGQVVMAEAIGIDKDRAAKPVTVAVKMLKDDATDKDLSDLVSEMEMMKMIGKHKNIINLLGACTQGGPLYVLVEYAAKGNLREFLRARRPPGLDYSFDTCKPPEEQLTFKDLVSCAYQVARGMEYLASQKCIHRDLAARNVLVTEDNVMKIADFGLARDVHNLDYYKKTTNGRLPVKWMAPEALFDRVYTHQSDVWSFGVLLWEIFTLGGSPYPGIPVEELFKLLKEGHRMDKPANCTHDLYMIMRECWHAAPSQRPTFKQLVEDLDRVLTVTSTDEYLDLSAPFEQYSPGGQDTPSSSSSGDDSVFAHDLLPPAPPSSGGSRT
# Experimental: as §1
# EphA4 = target: T6, EphA4 (Homo sapiens, UniProt P54764); experiment: PamStation PTK kinomic profiling; type: cell-based; details: change from DMSO control
# T6 construct: cell lysates were prepared; endogenous in cells; host or cells: SW480 and RKO
# T6 sequence (P54764 20-986): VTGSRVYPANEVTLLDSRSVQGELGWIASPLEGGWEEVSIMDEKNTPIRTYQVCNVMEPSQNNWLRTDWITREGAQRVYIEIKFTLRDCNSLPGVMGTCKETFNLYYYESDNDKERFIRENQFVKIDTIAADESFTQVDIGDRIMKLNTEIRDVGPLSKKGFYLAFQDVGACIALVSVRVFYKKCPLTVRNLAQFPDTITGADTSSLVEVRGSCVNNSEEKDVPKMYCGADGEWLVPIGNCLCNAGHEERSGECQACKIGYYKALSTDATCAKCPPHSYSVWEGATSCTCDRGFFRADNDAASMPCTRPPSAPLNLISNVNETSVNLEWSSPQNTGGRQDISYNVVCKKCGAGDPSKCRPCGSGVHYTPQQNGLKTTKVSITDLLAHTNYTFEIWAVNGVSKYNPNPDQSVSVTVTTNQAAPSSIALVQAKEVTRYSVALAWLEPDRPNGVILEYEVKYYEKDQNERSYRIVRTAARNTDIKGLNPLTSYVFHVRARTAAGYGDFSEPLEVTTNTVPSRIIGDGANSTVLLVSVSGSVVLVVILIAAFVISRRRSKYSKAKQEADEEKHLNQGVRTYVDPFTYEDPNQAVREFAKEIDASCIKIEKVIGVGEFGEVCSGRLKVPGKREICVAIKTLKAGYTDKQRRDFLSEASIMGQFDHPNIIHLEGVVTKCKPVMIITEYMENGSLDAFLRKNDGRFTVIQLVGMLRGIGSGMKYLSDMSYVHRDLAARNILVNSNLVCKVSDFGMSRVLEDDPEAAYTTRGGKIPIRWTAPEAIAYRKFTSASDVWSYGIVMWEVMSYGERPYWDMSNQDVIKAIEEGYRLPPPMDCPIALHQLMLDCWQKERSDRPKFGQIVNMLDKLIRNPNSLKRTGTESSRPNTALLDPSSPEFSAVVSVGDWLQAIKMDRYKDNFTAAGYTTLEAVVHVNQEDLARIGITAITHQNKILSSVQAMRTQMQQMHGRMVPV
# Experimental: as §1
# Abl = target: T7, Abl (Homo sapiens, UniProt P00519); experiment: PamStation PTK kinomic profiling; type: cell-based; details: change from DMSO control
# T7 construct: cell lysates were prepared; endogenous in cells; host or cells: SW480 and RKO
# Experimental: as §1
# HER3 = target: T8, HER3 (Homo sapiens, UniProt P21860); experiment: PamStation PTK kinomic profiling; type: cell-based; details: change from DMSO control
# T8 construct: cell lysates were prepared; endogenous in cells; host or cells: SW480 and RKO
# Experimental: as §1
# JAK1~b = target: T9, JAK1~b (Homo sapiens, UniProt P23458); experiment: PamStation PTK kinomic profiling; type: cell-based; details: change from DMSO control
# T9 construct: cell lysates were prepared; endogenous in cells; host or cells: SW480 and RKO
# Experimental: as §1
# Fgr = target: T10, Fgr (Homo sapiens, UniProt P09769); experiment: PamStation PTK kinomic profiling; type: cell-based; details: change from DMSO control
# T10 construct: we conducted kinome analysis on lysates of SW480 and RKO cells; endogenous in cells; host or cells: SW480 and RKO cells
# T10 sequence (P09769 whole entry): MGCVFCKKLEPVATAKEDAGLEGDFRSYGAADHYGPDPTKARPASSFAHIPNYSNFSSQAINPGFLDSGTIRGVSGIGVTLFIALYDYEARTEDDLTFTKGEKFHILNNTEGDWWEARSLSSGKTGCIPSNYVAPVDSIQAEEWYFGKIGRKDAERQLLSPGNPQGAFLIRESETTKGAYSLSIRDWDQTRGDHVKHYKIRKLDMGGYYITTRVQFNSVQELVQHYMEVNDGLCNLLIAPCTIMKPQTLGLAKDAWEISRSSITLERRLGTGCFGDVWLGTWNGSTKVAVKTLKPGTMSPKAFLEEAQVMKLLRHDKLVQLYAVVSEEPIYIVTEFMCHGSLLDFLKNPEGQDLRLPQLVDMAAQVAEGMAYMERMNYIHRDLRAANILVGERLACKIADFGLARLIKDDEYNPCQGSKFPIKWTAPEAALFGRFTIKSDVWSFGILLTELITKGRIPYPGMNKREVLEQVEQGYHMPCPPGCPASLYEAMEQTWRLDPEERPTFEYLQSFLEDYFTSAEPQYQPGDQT
# Experimental: as §1
# EphA5 = target: T11, EphA5 (Homo sapiens, UniProt P54756); experiment: PamStation PTK kinomic profiling; type: cell-based; details: change from DMSO control
# T11 construct: cell lysates were prepared; endogenous in cells; host or cells: SW480 and RKO
# Experimental: as §1
# FLT4 = target: T12, FLT4 (Homo sapiens, UniProt P35916); experiment: PamStation PTK kinomic profiling; type: cell-based; details: change from DMSO control
# T12 construct: cell lysates were prepared; endogenous in cells; host or cells: SW480 and RKO
# T12 sequence (P35916 25-1363): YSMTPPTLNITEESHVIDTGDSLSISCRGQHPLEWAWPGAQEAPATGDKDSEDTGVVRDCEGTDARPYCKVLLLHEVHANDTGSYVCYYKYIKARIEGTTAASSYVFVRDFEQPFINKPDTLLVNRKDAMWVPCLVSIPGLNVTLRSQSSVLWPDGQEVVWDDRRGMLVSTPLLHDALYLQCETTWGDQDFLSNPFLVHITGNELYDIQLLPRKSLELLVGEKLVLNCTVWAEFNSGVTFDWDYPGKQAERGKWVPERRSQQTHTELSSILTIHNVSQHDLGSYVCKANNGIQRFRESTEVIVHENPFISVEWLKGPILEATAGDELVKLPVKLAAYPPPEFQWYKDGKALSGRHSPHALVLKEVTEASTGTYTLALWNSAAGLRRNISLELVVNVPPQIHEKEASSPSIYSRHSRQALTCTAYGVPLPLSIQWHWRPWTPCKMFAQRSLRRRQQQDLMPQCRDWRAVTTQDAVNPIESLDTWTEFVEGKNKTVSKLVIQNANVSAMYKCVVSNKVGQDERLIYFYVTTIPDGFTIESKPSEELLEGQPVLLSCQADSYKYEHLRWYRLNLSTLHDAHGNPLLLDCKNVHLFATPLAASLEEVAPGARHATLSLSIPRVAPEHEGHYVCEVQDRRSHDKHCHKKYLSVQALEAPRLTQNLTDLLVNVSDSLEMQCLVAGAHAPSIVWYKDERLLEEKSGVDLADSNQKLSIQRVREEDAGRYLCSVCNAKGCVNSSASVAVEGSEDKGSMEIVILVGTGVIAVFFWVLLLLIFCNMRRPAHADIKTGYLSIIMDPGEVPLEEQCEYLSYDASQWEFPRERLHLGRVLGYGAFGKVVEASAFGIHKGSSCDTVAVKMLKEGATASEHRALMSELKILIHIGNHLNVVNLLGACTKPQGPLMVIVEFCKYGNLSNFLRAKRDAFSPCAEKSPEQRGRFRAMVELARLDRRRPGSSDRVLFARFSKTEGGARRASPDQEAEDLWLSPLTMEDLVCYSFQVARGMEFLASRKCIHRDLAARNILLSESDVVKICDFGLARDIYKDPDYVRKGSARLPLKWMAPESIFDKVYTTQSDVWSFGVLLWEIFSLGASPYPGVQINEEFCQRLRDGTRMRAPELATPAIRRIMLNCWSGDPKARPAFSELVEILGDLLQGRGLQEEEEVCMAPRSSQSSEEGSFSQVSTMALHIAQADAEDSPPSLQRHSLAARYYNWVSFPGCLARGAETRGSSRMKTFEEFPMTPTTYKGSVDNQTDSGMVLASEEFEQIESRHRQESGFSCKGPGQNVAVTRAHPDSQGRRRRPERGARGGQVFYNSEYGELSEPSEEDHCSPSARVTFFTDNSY
# Experimental: as §1
# IGF1R = target: T13, IGF1R (Homo sapiens, UniProt P08069); experiment: PamStation PTK kinomic profiling; type: cell-based; details: change from DMSO control
# T13 construct: cell lysates were prepared; endogenous in cells; host or cells: SW480 and RKO
# T13 sequence (P08069 31-1367): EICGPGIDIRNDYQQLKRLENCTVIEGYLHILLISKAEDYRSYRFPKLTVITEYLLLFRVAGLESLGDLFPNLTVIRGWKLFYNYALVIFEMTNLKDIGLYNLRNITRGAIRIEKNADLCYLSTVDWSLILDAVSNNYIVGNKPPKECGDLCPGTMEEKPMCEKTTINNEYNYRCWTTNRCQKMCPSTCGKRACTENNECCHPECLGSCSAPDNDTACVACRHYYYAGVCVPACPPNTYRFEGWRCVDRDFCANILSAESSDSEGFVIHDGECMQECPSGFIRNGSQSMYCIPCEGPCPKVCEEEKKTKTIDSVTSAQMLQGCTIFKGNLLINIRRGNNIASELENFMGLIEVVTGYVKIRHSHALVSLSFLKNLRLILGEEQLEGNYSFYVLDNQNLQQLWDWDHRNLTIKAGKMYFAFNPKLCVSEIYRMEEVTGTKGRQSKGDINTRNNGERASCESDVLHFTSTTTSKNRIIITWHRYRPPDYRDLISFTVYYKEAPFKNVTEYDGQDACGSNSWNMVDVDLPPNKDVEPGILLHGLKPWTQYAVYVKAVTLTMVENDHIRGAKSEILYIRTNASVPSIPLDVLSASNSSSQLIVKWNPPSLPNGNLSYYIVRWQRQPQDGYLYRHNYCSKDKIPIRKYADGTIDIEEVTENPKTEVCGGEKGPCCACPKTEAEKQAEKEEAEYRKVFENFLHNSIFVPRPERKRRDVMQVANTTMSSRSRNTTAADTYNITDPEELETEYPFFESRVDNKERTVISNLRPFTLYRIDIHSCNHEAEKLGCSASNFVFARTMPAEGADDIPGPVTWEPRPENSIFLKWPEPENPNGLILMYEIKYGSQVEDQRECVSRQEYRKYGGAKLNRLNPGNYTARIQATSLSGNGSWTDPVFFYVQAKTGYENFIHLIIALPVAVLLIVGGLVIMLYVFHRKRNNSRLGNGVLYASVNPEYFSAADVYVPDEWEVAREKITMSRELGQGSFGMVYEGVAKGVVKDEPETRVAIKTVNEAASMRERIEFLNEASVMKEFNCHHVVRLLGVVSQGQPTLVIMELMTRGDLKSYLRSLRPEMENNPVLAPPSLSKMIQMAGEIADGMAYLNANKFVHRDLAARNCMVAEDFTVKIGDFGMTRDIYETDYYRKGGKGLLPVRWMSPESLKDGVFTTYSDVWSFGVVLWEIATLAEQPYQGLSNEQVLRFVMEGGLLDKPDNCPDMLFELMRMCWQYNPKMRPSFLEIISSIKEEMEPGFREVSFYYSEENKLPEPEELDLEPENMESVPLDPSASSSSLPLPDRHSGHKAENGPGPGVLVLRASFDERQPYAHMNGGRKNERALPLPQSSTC
# Experimental: as §1
# FGFR4 = target: T14, FGFR4 (Homo sapiens, UniProt P22455); experiment: PamStation PTK kinomic profiling; type: cell-based; details: change from DMSO control
# T14 construct: cell lysates were prepared; endogenous in cells; host or cells: SW480 and RKO
# Experimental: as §1
# RKO cells = experiment: Annexin V-FITC/PI apoptosis flow cytometry; type: cell-based; details: 72 h, average of three experiments
# Experimental: (§2) To evaluate the effect of drugs on apoptosis, cells were stained by use of TACS Annexin V-FITC apoptosis detection kit obtained from R&D Systems (Minneapolis, MN), following the manufacturer’s protocol. CRC cells (HCT116, RKO, HT29, and SW480) were seeded at 1 × 10^5/dish in triplicates in four groups: vehicle, JAK/HDACi, regorafenib, and the combination for 72 h. The cells were analyzed with a BD LSR FortessaTM Flow Cytometer (BD Biosciences, Mountain View, CA).
# HT29 cells = experiment: Annexin V-FITC/PI apoptosis flow cytometry; type: cell-based; details: HT29, 72 h, average of three experiments
# Experimental: as §2
# SW480 cells = experiment: Annexin V-FITC/PI apoptosis flow cytometry; type: cell-based; details: SW480, 72 h, average of three experiments
# Experimental: as §2
# HCT116 cells = experiment: Annexin V-FITC/PI apoptosis flow cytometry; type: cell-based; details: HCT116, 72 h, average of three experiments
# Experimental: as §2
# [1] = Pharmacokinetics in plasma; type: in vivo; details: given in combination with JAK/HDACi, C57BL/6 mice plasma, 1, 7, 21, 48 h, i.p.
# Experimental: Blood samples were collected from C57BL/6 mice treated with regorafenib and JAK-HDACi at 1, 7, 21, or 48 h after treatment, and plasma samples were assayed. The quantifications of regorafenib and JAK-HDACi in plasma were conducted using a Shimadzu LC-20AD LC (Shimadzu, OR) and an API5000 MS (Sciex, MA). For sample preparation, a one-step protein precipitation with acetonitrile was used. Plasma (10 µL) was added into 250 µL of acetonitrile. Chromatographic separation was performed using an ACE Excel 3 C18 column. The mobile phase was (A) 0.1% formic acid in water and (B) 0.1% formic acid in acetonitrile utilizing a gradient from 20% to 75%. The injection volume was 10 µL. The run time was 5 min, and the retention time was 2.4 min. Standard curves for regorafenib and JAK-HDACi in plasma were prepared in the ranges of 5–15,000 ng/ml.
smiles,measurement,setting,value
CNC(=O)c1cc(Oc2ccc(NC(=O)Nc3ccc(Cl)c(C(F)(F)F)c3)c(F)c2)ccn1 [regorafenib],"Mean Kinase Statistic, Axl","Axl; RKO, 45 min",-0.027
same,"Mean Kinase Statistic, Axl","Axl; SW480, 45 min",-0.146
same,"Mean Kinase Statistic, FGFR2","FGFR2; RKO, 45 min",0.180
same,"Mean Kinase Statistic, FGFR2","FGFR2; SW480, 45 min",-0.279
same,"Mean Kinase Statistic, EphA2","EphA2; RKO, 45 min",0.225
same,"Mean Kinase Statistic, EphA2","EphA2; SW480, 45 min",-0.097
same,"Mean Kinase Statistic, HER4","HER4; RKO, 45 min",0.025
same,"Mean Kinase Statistic, HER4","HER4; SW480, 45 min",-0.223
same,"Mean Kinase Statistic, FGFR1","FGFR1; RKO, 45 min",0.199
same,"Mean Kinase Statistic, FGFR1","FGFR1; SW480, 45 min",-0.180
same,"Mean Kinase Statistic, FGFR3","FGFR3; RKO, 45 min",0.194
same,"Mean Kinase Statistic, FGFR3","FGFR3; SW480, 45 min",-0.292
same,"Mean Kinase Statistic, EphA4","EphA4; RKO, 45 min",-0.122
same,"Mean Kinase Statistic, EphA4","EphA4; SW480, 45 min",-0.155
same,"Mean Kinase Statistic, Abl","Abl; RKO, 45 min",-0.036
same,"Mean Kinase Statistic, Abl","Abl; SW480, 45 min",-0.154
same,"Mean Kinase Statistic, HER3","HER3; RKO, 45 min",0.047
same,"Mean Kinase Statistic, HER3","HER3; SW480, 45 min",-0.158
same,"Mean Kinase Statistic, JAK1~b","JAK1~b; RKO, 45 min",0.393
same,"Mean Kinase Statistic, JAK1~b","JAK1~b; SW480, 45 min",-0.185
same,"Mean Kinase Statistic, Fgr","Fgr; RKO, 45 min",-0.272
same,"Mean Kinase Statistic, Fgr","Fgr; SW480, 45 min",-0.185
same,"Mean Kinase Statistic, EphA5","EphA5; RKO, 45 min",-0.050
same,"Mean Kinase Statistic, EphA5","EphA5; SW480, 45 min",-0.324
same,"Mean Kinase Statistic, FLT4","FLT4; RKO, 45 min",0.133
same,"Mean Kinase Statistic, FLT4","FLT4; SW480, 45 min",-0.234
same,"Mean Kinase Statistic, IGF1R","IGF1R; RKO, 45 min",-0.129
same,"Mean Kinase Statistic, IGF1R","IGF1R; SW480, 45 min",-0.222
same,"Mean Kinase Statistic, FGFR4","FGFR4; RKO, 45 min",0.215
same,"Mean Kinase Statistic, FGFR4","FGFR4; SW480, 45 min",-0.166
same,percentage of apoptotic cells (sum of early and late apoptotic cells),RKO cells,1.18%
same,percentage of apoptotic cells (sum of early and late apoptotic cells),HT29 cells,5.16%
same,percentage of apoptotic cells (sum of early and late apoptotic cells),SW480 cells,11.17%
same,percentage of apoptotic cells (sum of early and late apoptotic cells),HCT116 cells,13.62%
same,bioavailability of regorafenib,[1],increased

# Reference: article PMC11238352, “Combination of dual JAK/HDAC inhibitor with regorafenib synergistically reduces tumor growth, metastasis, and regorafenib-induced toxicity in colorectal cancer” (Journal of Experimental & Clinical Cancer Research : CR, 2024)
